In PMC9143577, “Cationic Geminoid Peptide Amphiphiles Inhibit DENV2 Protease, Furin, and Viral Replication” (Molecules, 2022):
Entries after “also recorded” stand apart in the source; their conditions may differ. Where a SMILES comes first, the peptide text is derived from it. The star is where a group is joined. Palmitoyl = CCCCCCCCCCCCCCCC(=O)*; NHhexadecyl = CCCCCCCCCCCCCCCCN*; AMC = Cc1cc(=O)oc2cc(N*)ccc12; Cbz = O=C(OCc1ccccc1)*

Legend:
[1] = target: T1, DENV2 protease (Dengue virus type 2, UniProt P14340); assay: biochemical
Description: IC50 values were determined in CDD Vault using the Levenberg–Marquardt algorithm for fitting a Hill equation to dose-response data.
(§1) Enzyme expression and purification
DENV2 Protease Preparation. The enzyme was expressed and purified as previously described (ref. S1). Briefly, the vector with CF40 fused to NS3pro was used for high- level inducible expression of recombinant enzyme, tagged on the N-t erminus with hexahistidine. E. coli strain SG13009 cells were transformed with the expression plasmid and grown in kanamycin at 37 °C until the absorb ance at 600 nm r each ed a v alue of 0.6. Cells were induced for expression by the addition of isopropyl-β-D-thiogalactopyranose to a final concentration of 1 mM and incubated for additional 3 h at 30 °C. The cells were harvested by centrifugation, resuspended in 1 mL of a lysis buffer, subjected to sonication, and centrifuged again. The supernatant was collected and passed through a 2- mL column of nitrilotriacetic acid-agarose (Qiagen) loaded with Ni2+. The column was extensively washed with buffer containing […], and the protein was then eluted from then column in buffer containing 100 mM imidazole.
Elution samples were analyzed by 15% SDS-PAGE and the substrate Z-RR- MCA was used to distinguish the activity of DENV2 protease from that of contaminating bacterial […]
proteases. […]

[2] = target: T2, human furin (Homo sapiens, UniProt P09958); assay: Furin inhibition assay with MCA substrate (Ac-RVRR-MCA); format: biochemical; conditions: 0.76 nM furin, pH 7.0, 37 °C, read-out: IC50 (MCA Substrates) Furin
From the text: as §1
Target sequence in this assay (P09958 108-576 limits assumed): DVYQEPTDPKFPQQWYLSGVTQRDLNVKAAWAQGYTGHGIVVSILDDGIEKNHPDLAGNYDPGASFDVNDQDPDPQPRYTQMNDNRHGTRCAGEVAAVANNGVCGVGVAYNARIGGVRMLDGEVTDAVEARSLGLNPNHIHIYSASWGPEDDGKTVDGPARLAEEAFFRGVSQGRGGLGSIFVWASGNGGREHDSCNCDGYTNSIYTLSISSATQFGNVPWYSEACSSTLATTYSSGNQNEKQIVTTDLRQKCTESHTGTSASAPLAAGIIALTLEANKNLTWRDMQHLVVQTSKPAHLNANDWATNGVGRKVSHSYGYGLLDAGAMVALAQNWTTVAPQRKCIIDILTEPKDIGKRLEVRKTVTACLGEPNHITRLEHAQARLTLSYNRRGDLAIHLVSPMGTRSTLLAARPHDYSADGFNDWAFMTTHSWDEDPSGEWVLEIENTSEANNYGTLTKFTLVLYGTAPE
DENV2 Protease Preparation. The enzyme was expressed and purified as previously described (ref. S1). […]
subjected to sonication, and centrifuged again. The supernatant was collected and passed […]
Human Furin Preparation. The enzyme was expressed and purified as previously described (ref. S3). Briefly, The PCMV-Fur_S vector containing cDNA […]
Human furin was purifi ed […]
substrate Abz-[…]- EDDnp.

[3] = test system: wildtype DENV2 (DENV2 NGC); format: cell-based, DENV2 New Guinea strain; conditions: percentage of infected cells, 2 days after infection; for EC50: LLC-MK2 cells, read-out: DENV Replication in LLC-MK2 Cells EC50
Description: LLC-MK2 (Monkey Rhesus Kidney cells; CCL-7.1) were passaged in assay medium (EMEM (Lonza Cat No: BESP069F) supplemented with 10% heat-inactivated FCS (Lonza), 2% Pen/strep (Gibco), 2% L-Glutamine (Gibco), 2% Hepes (Lonza), and 1% sodium bicarbonate (Lonza)) prior to use in the antiviral assay. Cells were seeded in 96-well plates (10^5 cells/well) in assay medium to be exposed 16–24 h later to compounds and viruses. The plates were incubated at 37 °C/5% CO2 overnight to allow for cell adherence.
Compounds were solubilized in DMSO and evaluated using two-fold serial dilutions (8-points dose-response curves starting at a concentration of 50 µM) in duplicate for the antiviral assays. Compounds were diluted in assay medium at 1× test concentrations. Ribavirin (Sigma Aldrich, Amsterdam, The Netherlands) was evaluated as a positive control compound in the antiviral assays.
DENV2 New Guinea strain was grown in AP-61 insect cells (in-house cell bank) in complete Leibovitz medium containing 1% pen/strep (Gibco), 1% L-glutamin (Gibco), 0.5% Hepes (Lonza), 0.5% sodium bicarbonate (Lonza), and 10% tryptose phosphate for the production of stock virus pools. On the day of cellular infection, an aliquot of virus was removed from the freezer (−80 °C) and allowed to thaw in water in a biological safety cabinet. Virus was diluted into assay medium (10^4 TCID50), and 100 µL of this was added to each well, resulting in a TCID50 of 100. Cells were incubated for 2 h at 37 °C/5% CO2 and washed 3 times with blank assay medium. Directly after washing, 100 µL of the compound dilutions were added to each well.
Each plate contained cell control wells (cells only), virus control wells (cells plus virus), duplicate drug toxicity wells per compound (cells plus drug only), as well as duplicate experimental wells (drug plus cells plus virus).
Virus-infected cells were visualised using a DENV2 immunoperoxidase staining protocol. Two days after infection, cells were inactivated with ethanol 70% for 30 min and washed with PBS. Fixed plates were incubated with PBS containing 0.05% H2O2 for 20 min at 37 °C and washed again 3 times with PBS. Plates were incubated for 1 h with 50 µL monoclonal anti-DENV-2 NS1 antibody (Millipore; diluted 1:500 in EMEM). Samples were washed once with PBS containing 0.05% Tween20 and twice with PBS only. Secondary polyclonal goat anti-mouse IgG HRP (Dako; diluted 1:2000) was added 50 µL per well and incubated for 1 h at 37 °C in the dark. […] Bidest water was added after removal of the substrate solution, and all virus-positive cells per well (marked by brown/red staining) were counted under a microscope. […]

[4] = test system: DENV2 replicon; conditions: DENV2 HeLa replicon cells treated for 2 days; for inhibition of luciferase activity (DENV2 replicon): 10 µM
Description: (§2) To investigate the effect of geminoids on viral replication, we used HeLa cells containing a DENV2 replicon. Instead of the structural proteins of DENV2, the replicon encodes a luciferase reporter that can be used as a readout for DENV2 protease dependent virus replication. Cell viability was assessed on the same cells using a colourimetric assay based on 3-(4,5-dimethylthiazol-2-yl)-5-(3-carboxymethoxyphenyl)-2H-tetrazolium (MTS) reduction, and by light microscopy. […] The viability of unmodified HeLa cells after treatment with these compounds was also tested in a separate experiment using the Celltiter Blue Viability Assay (Promega, see Supporting Information) in the concentration range of 0.8–50 μM.
(§3) The replicon assay was carried out as described earlier using HeLa cells that contain a stably replicating DENV2 replicon expressing a luciferase reporter gene. The amphiphilic inhibitors were added as concentrated solutions in DMSO; the same amount of DMSO was used as the blank experiment, with the viral inhibitor ribavirin as a positive control. Luciferase activity and cell viability were assessed as described previously.

[5] = test system: trypsin; assay: Trypsin inhibition assay with Z-FR-MCA; format: biochemical; conditions: 4 nM trypsin, 11.4 μM Z-FR-MCA; 100 mM Tris.HCl, pH 8.0, 10 mM CaCl2; read-out: IC50 (MCA Substrates) Trypsin
Description: The assay was carried out in 100 mM Tris.HCl, 10 mM CaCl2, pH 8.0, with 4 nM enzyme and 11.4 µM Z-FR-MCA substrate.

[6] = Critical micelle concentration by pyrene fluorescence; format: physicochemical; conditions: pure water
Description: Pyrene was used as a probe to study the changes in its fluorescence, in particular the ratio (I1/I3) of the intensities I1 and I3 […] 373 and 383 nm, respectively. An abrupt change in this ratio with increasing surfactant concentration points to an increase in hydrophobicity of the environment of the probe corresponding to the formation of aggregates. See Supporting Information for details.
Determ ination of the critical m icelle concentrat ion (CMC)
A solution of 5 mg pyrene in methanol (10 mL) was prepared and diluted 20 times. 50 µ L from the dil uted solution was added to geminoid solutions in water to a final volume of 3 mL. The geminoid samples were made from a stock solution of 500 µ M in water in a concentration range from 5 to 200 µ M. The fluorescence spectra were then measured after 1 hour wi th the […] set to 334 nm and emission range 350- 500 nm, excitation slit […], emission slit […] and at 25 °C. The ratio of the intensities was then plotted against the geminoid concentration, and the CMC is calculated from the intersection point of the best fits to the data points below and above it (Fig ure S5).
(§4) Concentration (µM) Concentration (µM)
Concentration (µM)Concentration (µM) Concentration (µM)Concentration (µM)
(1 picture or pasted object on this page, not shown here)

[7] = test system: HeLa cells (wildtype); assay: Celltiter Blue Viability Assay on unmodified HeLa cells; conditions: 24 h, 0.8–50 μM, highest concentration
Description: as §2, §4

[8] = test system: DENV2 HeLa replicon cells; conditions: 2 days, 0.3 to 10 µM
Description: as §2, §3

[9] = target: trypsin
[10] = target: T2, human furin
Target sequence in this assay (P09958 27-794): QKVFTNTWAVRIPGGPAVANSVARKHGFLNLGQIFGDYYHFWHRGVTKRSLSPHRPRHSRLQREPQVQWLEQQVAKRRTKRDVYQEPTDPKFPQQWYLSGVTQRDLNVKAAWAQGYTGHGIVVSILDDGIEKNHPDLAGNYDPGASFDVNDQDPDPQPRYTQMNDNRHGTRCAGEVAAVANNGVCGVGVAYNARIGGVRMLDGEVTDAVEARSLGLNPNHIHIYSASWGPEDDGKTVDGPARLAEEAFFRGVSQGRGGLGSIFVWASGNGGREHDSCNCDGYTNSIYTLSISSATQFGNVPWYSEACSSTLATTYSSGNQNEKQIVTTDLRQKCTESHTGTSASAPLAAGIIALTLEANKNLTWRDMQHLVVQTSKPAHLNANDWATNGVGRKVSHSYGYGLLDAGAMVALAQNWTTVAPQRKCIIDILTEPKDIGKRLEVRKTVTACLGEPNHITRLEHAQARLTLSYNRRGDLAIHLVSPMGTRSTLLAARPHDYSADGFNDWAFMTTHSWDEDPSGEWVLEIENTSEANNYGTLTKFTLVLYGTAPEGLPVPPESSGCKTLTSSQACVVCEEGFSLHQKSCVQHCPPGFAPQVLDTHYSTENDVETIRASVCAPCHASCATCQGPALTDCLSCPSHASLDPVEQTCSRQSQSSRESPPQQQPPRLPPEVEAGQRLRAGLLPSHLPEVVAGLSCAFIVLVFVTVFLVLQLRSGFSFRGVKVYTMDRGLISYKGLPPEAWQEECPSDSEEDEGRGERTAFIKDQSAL

[11] = target: DENV2 protease (NS2B-NS3 construct CF40-…-NS3) (dengue virus serotype 2)
[12] = target: T1, DENV2 protease; set-up: the vector with CF40 fused to NS3pro was used; hexahistidine (N); made in house; host or cells: E. coli strain SG13009; method as in PMID 17184724; conditions: ref [23], cited from earlier work

T1 sequence (P14340 1476-1653): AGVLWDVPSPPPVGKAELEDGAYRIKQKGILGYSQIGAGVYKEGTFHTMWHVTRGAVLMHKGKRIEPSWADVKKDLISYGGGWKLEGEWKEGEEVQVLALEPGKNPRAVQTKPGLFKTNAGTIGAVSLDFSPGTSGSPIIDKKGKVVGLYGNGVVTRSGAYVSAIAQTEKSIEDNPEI
T1 sequence (P14340 1398-1437): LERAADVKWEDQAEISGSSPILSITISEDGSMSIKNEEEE

## CCCCCCCCCCCCCCCCNC(=O)[C@H](CCCCN)NC(=O)[C@H](CCCCN)NC(=O)CCCCCCCCCCCCCCC [Compound 1]
[1]
  IC50: 4.25 ± 0.27 µM

## CCCCCCCCCCCCCCCCNC(=O)[C@H](CCCCN)NC(=O)[C@H](C)NC(=O)[C@H](CCCCN)NC(=O)CCCCCCCCCCCCCCC [Compound 2a, C15H31C(O)-Lys-(Ala)-Lys-NHC16H33.2TFA]
[2]
  IC50: 3.57 ± 0.18 µM
[3]
  EC50: 4.1 ± 1.5 µM
[4]; 3 µM
  reduction of luciferase activity: 39%
[4]
  inhibition of luciferase activity (DENV2 replicon): 62%
[5]
  IC50: 17.2 ± 0.66 µM
[6]
  CMC (Critical Micelle Concentration): 48 to 58 µM

## CCCCCCCCCCCCCCCCNC(=O)[C@H](CCCCN)NC(=O)[C@H](C)NC(=O)[C@H](C)NC(=O)[C@H](CCCCN)NC(=O)CCCCCCCCCCCCCCC [Compound 2b, C15H31C(O)-Lys-(Ala)2-Lys-NHC16H33.2TFA] (Palmitoyl-KAAK-NHhexadecyl)
[2]
  IC50: 2.14 ± 0.1 µM
[3]
  EC50: 3.1 ± 0.7 µM
[4]
  inhibition of luciferase activity (DENV2 replicon): 47%
[5]
  IC50: 20.9 ± 0.34 µM
[6]
  CMC (Critical Micelle Concentration): 41 µM

## CCCCCCCCCCCCCCCCNC(=O)[C@H](CCCCN)NC(=O)CNC(=O)[C@H](CCCCN)NC(=O)CCCCCCCCCCCCCCC [Compound 3a]
[3]
  EC50: 12.7 ± 1.1 µM
[4]
  inhibition of luciferase activity (DENV2 replicon): 38%
[5]
  IC50: 41 ± 2 µM
[6]
  CMC (Critical Micelle Concentration): 55 to 72 µM

## CCCCCCCCCCCCCCCCNC(=O)[C@H](CCCCN)NC(=O)CNC(=O)CNC(=O)[C@H](CCCCN)NC(=O)CCCCCCCCCCCCCCC [Compound 3b] (Palmitoyl-KGGK-NHhexadecyl)
[3]
  DENV Replication in LLC-MK2 Cells EC50: not active
[7]
  toxicity in Celltiter Blue Viability Assay: slight toxicity; also recorded: slight toxicities
[8]
  cell viability (MTS assay), relative to DMSO control: considerable cytotoxicity
[6]
  CMC (Critical Micelle Concentration): 30 µM

## C15H31C(O)-Lys-(Ala)-Lys-NHC16H33 (C16-KAK-C16) (peptide)
[9]
  IC50 of inhibition of trypsin activity (4 nM trypsin, 11.4 µM Z-FR-MCA, 100 mM Tris.HCl pH 8.0, 10 mM CaCl2): 17.2 µM
[10]
  IC50 of inhibition of furin activity (0.76 nM furin, substrate Ac-RVRR-MCA, 10 mM MES pH 7.0, 37 °C): 3.57 µM
[11]
  IC50 of inhibition of DENV2 protease activity (20 nM enzyme, substrate Z-RR-MCA, 50 mM Tris.HCl pH 9.0, 20% glycerol, 37 °C): 0.66 µM
  IC50 of inhibition of DENV2 protease activity (50 µM Tyr(3-NO2) substrate, 50 mM Tris.HCl pH 9.0, 10% ethylene glycol, 0.0016% Brij 58): 2.3 µM

## C15H31C(O)-Lys-(Gly)-Lys-NHC16H33 (C16-KGK-C16) (peptide)
[9]
  IC50 of inhibition of trypsin activity (4 nM trypsin, 11.4 µM Z-FR-MCA, 100 mM Tris.HCl pH 8.0, 10 mM CaCl2): 41 µM
[11]
  IC50 of inhibition of DENV2 protease activity (20 nM enzyme, substrate Z-RR-MCA, 50 mM Tris.HCl pH 9.0, 20% glycerol, 37 °C): 1.94 µM
  IC50 of inhibition of DENV2 protease activity (50 µM Tyr(3-NO2) substrate, 50 mM Tris.HCl pH 9.0, 10% ethylene glycol, 0.0016% Brij 58): 2.1 µM

## C15H31C(O)-Lys-Lys-NHC16H33 (C16-KK-C16) (peptide)
[9]
  IC50 of inhibition of trypsin activity (4 nM trypsin, 11.4 µM Z-FR-MCA, 100 mM Tris.HCl pH 8.0, 10 mM CaCl2): 85.7 µM
[11]
  IC50 of inhibition of DENV2 protease activity (20 nM enzyme, substrate Z-RR-MCA, 50 mM Tris.HCl pH 9.0, 20% glycerol, 37 °C): 4.25 µM

## Cbz-Arg-Arg-{AMC}
[12]
  kcat for hydrolysis of the substrate: 0.11 s⁻¹
[12]; read-out: KM for hydrolysis of the substrate
  Km: 247 µM

B1: C15H31C(O)-Lys-(Ala)2-Lys-NHC16H33 (C16-KA2K-C16) (peptide)
peptide: Palmitoyl-KAAK-NHhexadecyl
SMILES: CCCCCCCCCCCCCCCCNC(=O)[C@H](CCCCN)NC(=O)[C@H](C)NC(=O)[C@H](C)NC(=O)[C@H](CCCCN)NC(=O)CCCCCCCCCCCCCCC
[9]
  IC50 of inhibition of trypsin activity (4 nM trypsin, 11.4 µM Z-FR-MCA, 100 mM Tris.HCl pH 8.0, 10 mM CaCl2): 20.9 µM
[10]
  IC50 of inhibition of furin activity (0.76 nM furin, substrate Ac-RVRR-MCA, 10 mM MES pH 7.0, 37 °C): 2.14 µM
[11]
  IC50 of inhibition of DENV2 protease activity (20 nM enzyme, substrate Z-RR-MCA, 50 mM Tris.HCl pH 9.0, 20% glycerol, 37 °C): 0.8 µM
  IC50 of inhibition of DENV2 protease activity (50 µM Tyr(3-NO2) substrate, 50 mM Tris.HCl pH 9.0, 10% ethylene glycol, 0.0016% Brij 58): 1.4 µM

B2: C15H31C(O)-Lys-(Gly)2-Lys-NHC16H33 (C16-KG2K-C16) (peptide)
peptide: Palmitoyl-KGGK-NHhexadecyl
SMILES: CCCCCCCCCCCCCCCCNC(=O)[C@H](CCCCN)NC(=O)CNC(=O)CNC(=O)[C@H](CCCCN)NC(=O)CCCCCCCCCCCCCCC
[11]
  IC50 of inhibition of DENV2 protease activity (20 nM enzyme, substrate Z-RR-MCA, 50 mM Tris.HCl pH 9.0, 20% glycerol, 37 °C): 3.69 µM
  IC50 of inhibition of DENV2 protease activity (50 µM Tyr(3-NO2) substrate, 50 mM Tris.HCl pH 9.0, 10% ethylene glycol, 0.0016% Brij 58): 10.2 µM
